In test [1] the test system is immobilized M3R. Nature of the test: Specificity of the M3R-immobilized column (retention times of ligands). It is filed as binding.
The target in test [2] is muscarinic M3 receptor. The conditions noted are these: cited from earlier work.
The test system of test [3] is M3 muscarinic receptor (M3R). It is filed as binding.
Test [4] has as its system immobilized M3R. Put plainly: Identification of M3R-binding bioactive compounds in Daturae Flos extract on M3R-immobilized column with HPLC-MS. The conditions noted are these: retained peak 2 of Daturae Flos extract, identified by HPLC-MS/MS. As to the method: The heating under reflux method was used to make the anhydrous extract of […]. In brief, 10 g of dried DF was soaked in 100 mL of water for 0.5 h, boiled for 2 × 1 h, filtered, and concentrated to 10 mL via rotary evaporation at 60 °C under reduced pressure. A solution of 95% ethanol was applied to carry out alcohol sedimentation to reduce the alcohol content of the concentrated extract to 75%. The liquid supernatant was concentrated at 60 °C to obtain an herbal solution of 1.0 g/mL.
The M3R-immobilized column was utilized to analyze the active components in the DF extract with an Agilent 1100 chromatographic system. The mobile phase was 5 mM ammonium acetate buffer, the flow rate was 0.3 mL/min, the sample volume was 10 μL, and the detection wavelength was 254 nm. […] It was further analyzed using high performance liquid chromatography (HPLC)–mass spectrometry (MS).
An Eclipse XDB-C18 column (2.1 × 150 mm, 3.5 μm) was employed for chromatographic analysis with a 0.1% formic acid solution and methanol (40:60, v/v) as the mobile phase, a flow rate of 0.3 mL/min, and a column temperature of 30 °C. The MS analysis was carried out in both negative and positive modes with a scan range of 100–2000 amu, a nebulizing gas pressure of 30 psi, a flow rate of 8.0 L/min, and a dry gas temperature of […], respectively.

Test [5] concerns M3 muscarinic receptor (M3R). It is filed as binding. The conditions noted are these: immobilized M3R column; flow rates 0.4-3.6 mL/min.
The mark [6] stands for this setting: phosphate buffer 20 mM pH 7.4, flow rate 0.2 mL/min, injection 10 μL.

Where a name gives a salt, the structure may show the parent alone.

For `CC[C@@H]1C(=O)OC[C@@H]1Cc1cncn1C` [Pilocarpine], the “retention time on the M3R-immobilized column” value (from here on “retention time”) in test [1] (setting [6]) was 5.4 min. With `CN1[C@@H]2CC(OC(=O)[C@H](CO)c3ccccc3)C[C@H]1[C@@H]1O[C@@H]12.Cl` (single isomer, unassigned; (-)) [(−)-Scopolamine hydrochloride], the “kd by the Radioligand Binding Assay” value in test [2] was 0.00517 ± 0.0005 s⁻¹. The “KA by Frontal Analysis (association constant)” value in test [3] is recorded as “(2.39 ± 0.03) × 10^4 M^−1”. `O=N[O-].[Na+]` [sodium nitrite, Sodium nitrite]: the “retention time” value in test [1] (pH 7.4) is on record as 1.1 min.

For the compound `CN1[C@@H]2C[C@@H](OC(=O)[C@H](CO)c3ccccc3)C[C@H]1[C@@H]1O[C@@H]12` [scopolamine], in test [4], the “binding to M3R of compounds from the DF extract” value is listed as “bind to M3R”. With `CN1[C@@H]2CC[C@H]1C[C@@H](OC(=O)[C@H](CO)c1ccccc1)C2` [Hyoscyamine, hyoscyamine], the “binding to M3R of compounds from the DF extract” value in test [4] is “bind to M3R”. Consider `CCCCC(=O)N(Cc1ccc(-c2ccccc2-c2nnn[nH]2)cc1)[C@H](C(=O)O)C(C)C` [Valsartan], for which the “specific binding on the M3R-immobilized column” value in test [1] (judged from retention time vs system void time) is “no specific binding occurred”. Further, the “retention time” value in test [1] (setting [6]) was determined as 2.3 min. For `CN1[C@@H]2CC[C@H]1C[C@@H](OC(=O)C(CO)c1ccccc1)C2` (stereo partly shown) [Atropine sulfate, atropine sulfate], in test [5], the “kd by the Peak Profiling Method (dissociation rate constant)” value was 0.238 ± 0.00283 s⁻¹. The “KA by Frontal Analysis (association constant)” value in test [3] is “(3.71 ± 0.03) × 10^4 M^−1”.

(Values after paper PMC10139132, “Immobilization of M3 Muscarinic Receptor to Rapidly Analyze Drug—Protein Interactions and Bioactive Components in a Natural Plant” (International Journal of Molecular Sciences, 2023).)
